# Data: ChEMBL document CHEMBL1201862, “PubChem BioAssay data set” (2004)
# Structures can show the parent of a compound that is named as a salt. The source made the active and inactive calls.
# Experiments:
# H9c2 = experiment: cells; type: functional, cell-based; settings: Rattus norvegicus, H9c2, Myocardium;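 also: confirmatory concentration-response retest of ultra-high-throughput screening hits for modulation of myocardial damage; cell death induced by hydrogen peroxide oxidative stress; compound pretreatment for 60 min then peroxide exposure for 2 h; potency is for protecting the cells against peroxide damage rather than for killing them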
# Cytochrome P450 2D6 = Cytochrome P450 2D6 (Homo sapiens, UniProt P10635);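 also: CYP2D6 member of a cytochrome P450 panel assay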
# Cytochrome P450 1A2 = biological target: T1, Cytochrome P450 1A2 (Homo sapiens, UniProt P05177);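 also: PubChem cytochrome P450 panel assay, CYP1A2 panel member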
# T1 sequence (P05177 whole entry): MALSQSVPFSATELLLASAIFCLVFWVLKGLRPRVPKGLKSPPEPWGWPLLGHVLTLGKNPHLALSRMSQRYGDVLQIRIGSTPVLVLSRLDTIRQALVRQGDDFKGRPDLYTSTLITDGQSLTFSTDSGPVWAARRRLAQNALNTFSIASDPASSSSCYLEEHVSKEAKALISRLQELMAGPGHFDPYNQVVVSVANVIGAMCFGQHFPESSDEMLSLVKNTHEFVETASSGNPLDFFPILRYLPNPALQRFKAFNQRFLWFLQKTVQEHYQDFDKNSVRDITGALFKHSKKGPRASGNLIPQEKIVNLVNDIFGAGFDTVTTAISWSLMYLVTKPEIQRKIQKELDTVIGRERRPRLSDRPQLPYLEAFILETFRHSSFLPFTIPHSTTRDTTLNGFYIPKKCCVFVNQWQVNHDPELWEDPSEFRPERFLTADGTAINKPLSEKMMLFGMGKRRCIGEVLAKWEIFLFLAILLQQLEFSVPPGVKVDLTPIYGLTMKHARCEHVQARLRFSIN
# Cytochrome P450 2C19 = Cytochrome P450 2C19 (Homo sapiens, UniProt P33261); experiment: Cytochrome panel assay with activity outcomes. Panel member name: p450-cyp2c19 Compounds with AC50 equal or less than 10 uM are considered active; type: functional; settings: read-out: AC50
# H4 = experiment: Luminescence Cell-Based Dose Response HTS to Identify Activators of 5'UTR Stem-Loop Driven Prion Protein mRNA Translation in H4 Neuroglioblastoma Cells. [Related pubchem assays: 1829 (Project Summary), 1814 (Primary HTS)]; type: functional; settings: Homo sapiens
# [1] = Luminescence Cell-Based Dose Response HTS to Identify Activators of Luciferase Translation or Activity in H4 […] Cells. [Related pubchem assays: 1829 (Project Summary), 1814 (Primary HTS)]; type: functional
# [2] = Luminescence Cell-Based Dose Confirmation HTS to Identify Activators of 5'UTR Stem-Loop Driven Alpha-Synuclein mRNA Translation in H4 Neuroglioblastoma Cells. [Related pubchem assays: 1829 (Project Summary), 1814 (Primary HTS)]; type: functional
# Cytochrome P450 2C9 = Cytochrome P450 2C9 (Homo sapiens, UniProt P11712)
# P388/ADR = experiment: cells; type: functional; settings: Mus musculus
# SN12K1 = experiment: cells; type: functional; settings: Homo sapiens
# P388 = experiment: cells; type: functional; settings: Mus musculus
# [3] = biological target: T2, RNA-binding protein pos-1 (Caenorhabditis elegans, UniProt G5EF15); experiment: inhibitors of POS-1/mex-3 RNA binding, dose response, biochemical, fluorescence polarization (AID 1964);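 also: purified POS-1 fused to maltose binding protein made in E. coli; potency of compounds blocking POS-1 binding to fluorescent RNA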
# T2 sequence (G5EF15 whole entry): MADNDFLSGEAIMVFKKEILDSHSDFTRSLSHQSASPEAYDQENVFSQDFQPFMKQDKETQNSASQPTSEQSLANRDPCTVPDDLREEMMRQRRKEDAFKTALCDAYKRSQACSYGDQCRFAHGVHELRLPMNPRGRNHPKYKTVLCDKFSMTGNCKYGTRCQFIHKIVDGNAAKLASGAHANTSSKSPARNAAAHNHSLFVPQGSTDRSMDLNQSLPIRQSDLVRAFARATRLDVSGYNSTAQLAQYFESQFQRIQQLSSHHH
# cells [4] = type: functional, cell-based
# [5] = NIH-3T3 fibroblast cytotoxicity, dose response, cytotoxicity control, cell-based, fluorescence, Alamar Blue, secondary assay (AID 2327); type: functional;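 also: NIH-3T3 mouse fibroblasts cultured with fluconazole at 8 µg/mL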
# [6] = C. albicans growth with fluconazole, confirmation, fluorescence, retest (AID 2467); type: functional, cell-based
# cells [7] = type: functional, cell-based; remark: listed apart in the source
# Sequence of Cytochrome P450 2D6 (P10635 whole entry): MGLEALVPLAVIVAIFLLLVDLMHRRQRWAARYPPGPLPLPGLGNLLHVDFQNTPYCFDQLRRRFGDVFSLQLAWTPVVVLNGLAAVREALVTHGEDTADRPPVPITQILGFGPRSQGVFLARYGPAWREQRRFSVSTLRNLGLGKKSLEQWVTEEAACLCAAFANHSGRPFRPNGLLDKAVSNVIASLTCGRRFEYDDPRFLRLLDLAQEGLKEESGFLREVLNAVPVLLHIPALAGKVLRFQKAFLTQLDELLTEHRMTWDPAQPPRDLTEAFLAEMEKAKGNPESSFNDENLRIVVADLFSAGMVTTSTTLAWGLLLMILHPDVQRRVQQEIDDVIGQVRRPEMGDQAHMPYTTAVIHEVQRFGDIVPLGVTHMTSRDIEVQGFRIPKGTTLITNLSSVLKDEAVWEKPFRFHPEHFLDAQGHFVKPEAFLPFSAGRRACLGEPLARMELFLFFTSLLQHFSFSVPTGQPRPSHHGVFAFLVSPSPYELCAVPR
# Sequence of Cytochrome P450 2C19 (P33261 whole entry): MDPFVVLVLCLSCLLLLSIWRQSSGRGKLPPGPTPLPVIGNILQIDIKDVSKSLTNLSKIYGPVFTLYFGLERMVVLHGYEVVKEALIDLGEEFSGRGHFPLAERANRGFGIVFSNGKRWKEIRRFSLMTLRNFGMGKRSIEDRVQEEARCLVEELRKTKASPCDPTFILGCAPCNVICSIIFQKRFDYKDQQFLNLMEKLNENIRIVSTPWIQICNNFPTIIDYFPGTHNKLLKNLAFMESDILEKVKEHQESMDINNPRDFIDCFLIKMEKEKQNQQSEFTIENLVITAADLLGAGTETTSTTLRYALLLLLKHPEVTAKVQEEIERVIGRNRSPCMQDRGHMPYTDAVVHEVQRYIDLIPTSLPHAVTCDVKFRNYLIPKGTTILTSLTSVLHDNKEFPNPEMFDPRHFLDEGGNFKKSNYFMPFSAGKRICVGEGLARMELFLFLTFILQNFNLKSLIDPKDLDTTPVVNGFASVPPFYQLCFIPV
# Sequence of Cytochrome P450 2C9 (P11712 whole entry): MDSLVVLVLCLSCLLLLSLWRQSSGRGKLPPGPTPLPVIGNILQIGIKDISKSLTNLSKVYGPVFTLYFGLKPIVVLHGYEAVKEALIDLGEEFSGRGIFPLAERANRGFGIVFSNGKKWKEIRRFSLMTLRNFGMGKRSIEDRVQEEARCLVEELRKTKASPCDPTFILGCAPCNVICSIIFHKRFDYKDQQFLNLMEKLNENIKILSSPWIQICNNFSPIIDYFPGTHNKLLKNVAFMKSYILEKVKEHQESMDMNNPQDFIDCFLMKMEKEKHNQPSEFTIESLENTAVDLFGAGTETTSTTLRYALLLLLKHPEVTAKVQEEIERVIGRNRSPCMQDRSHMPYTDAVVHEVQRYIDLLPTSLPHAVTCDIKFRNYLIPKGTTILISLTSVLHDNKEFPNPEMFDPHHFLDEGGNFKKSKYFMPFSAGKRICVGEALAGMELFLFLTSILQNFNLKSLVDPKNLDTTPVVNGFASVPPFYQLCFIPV
Structure (SMILES),GI50 (P388/ADR),GI50 (SN12K1),GI50 (P388),other results
CCOC(=O)C1C(=O)NC(SCC(=O)OC)=C(C#N)C1c1ccccc1OCC (centres undefined),–,–,–,IC50 (H9c2): 67.2 µM (inactive)
CCCc1cc2c(n1Cc1ccc(OC)cc1)C(C)C1CN(C(=O)c3ccccc3)C(C)(C(=O)OC)C21 (centres undefined),–,–,–,AC50 (Cytochrome P450 2D6): 39.8 µM (inconclusive); AC50 (Cytochrome P450 1A2): 15.8 µM (inconclusive); AC50 (Cytochrome P450 2C19): 0.00631 µM (inconclusive)
CC(C)n1nnnc1SCC(=O)c1ccc2c(c1)OCCO2,–,–,–,EC50 (H4): > 120 µM (not active); AC50 (Cytochrome P450 2D6): 14.1 µM (inconclusive); EC50 [1]: 0.624 µM (active); EC50 [2]: 0.276 µM (active); AC50 (Cytochrome P450 2C9): 17.8 µM (inconclusive)
Cc1nc(O)nc(O)c1/C=C/C(=O)O,> 1000 µM (inactive),> 1000 µM (inactive),631 µM (inactive),–
CN(C)c1nc(-c2cccc(NS(C)(=O)=O)c2)nc2ccccc12,–,–,–,AC50 (Cytochrome P450 2D6): 25.1 µM (inconclusive); AC50 (Cytochrome P450 2C19): 20 µM (inconclusive)
CCOc1ccc(N2C(=O)/C(=C/c3ccco3)C(=O)NC2=S)cc1,–,–,–,EC50 [3]: 55.3 µM (active)
COc1ccccc1CCn1c(=O)c(-c2ccc(F)c(F)c2)nc2cncnc21,–,–,–,AC50 (Cytochrome P450 2D6): 31.6 µM (inconclusive)
Nc1nncs1,665 µM (inactive),2120 µM (inactive),711 µM (inactive),–
CC(=O)c1ccc(-c2cnc3c(NC=O)cc(-c4ccc(C(=O)NC5CC5)cc4)cn23)cc1,–,–,–,IC50 (H9c2): > 79 µM (inactive)
COc1cccc(/C=N/Nc2cc(-n3nc(C)cc3-c3ccccc3)ncn2)c1O,–,–,–,EC50 (cells [4]): > 350 µM (not active); EC50 [5]: 61 µM (active); EC50 [6]: 1.57 µM (active); EC50 (cells [7]): > 350 µM (not active)
Cc1cc(NC(=S)Nc2ccccc2)c(NC(=S)Nc2ccccc2)cc1C,3.3 µM (inactive),18.5 µM (inactive),1.41 µM (inactive),–
CC1C(=O)C(C)C(c2ccco2)N(N=O)C1c1ccco1 (centres undefined),63.4 µM (inactive),> 100 µM (inactive),> 100 µM (inactive),–
CC1=C2C(O)C(C(C)C(=O)N(C)C)CCC2(C)C=CC1=O (centres undefined),> 100 µM (inactive),> 100 µM (inactive),> 100 µM (inactive),–
Cc1cccc(C(=O)N/N=C2\CS(=O)(=O)N(C)c3ccsc32)c1,–,–,–,IC50 (H9c2): > 79 µM (inactive)
CCCCCC(O)C1C(=O)OC(C)C(O)/C=C/C=C/C=C/C=C/C=C(\C)C(O)C(O)C(O)CC(O)CC(O)CC(O)CC(O)CC1O (centres undefined),1.95 µM (inactive),1.44 µM (inactive),0.904 µM (active),–
COc1cc(/C=C/C(=O)Oc2ccccc2)ccc1C(=O)O/C=C/c1ccccc1,0.83 µM (active),> 100 µM (inactive),3.78 µM (inactive),–
O=C(CCN1CCOCC1)/C(=C/c1ccccc1)c1ccccc1,1.11 µM (active),3.03 µM (inactive),2.29 µM (inactive),–
CC(C)NC(=O)OCc1c(COC(=O)NC(C)C)c(-c2ccc(Cl)c(Cl)c2)n2c1CCC2,> 100 µM (inactive),> 100 µM (inactive),> 100 µM (inactive),–
CC[C@]1(O)C[C@H]2CN(CCc3c([nH]c4ccccc34)[C@@](C(=O)OC)(c3cc4c(cc3OC)N(C=O)[C@H]3[C@@](O)(C(=O)OC)[C@H](OC(C)=O)[C@]5(CC)C=CCN6CC[C@]43[C@@H]65)C2)C1 [VINCRISTINE SULFATE],0.171 µM (active),0.1 µM (active),0.1 µM (active),–
